According to US9562084B2, “Peptides derived from NCAPG2 and their use” (NATIONAL CANCER CENTER, priority 2014, dated 2017):
Substitutions are numbered along the chain they refer to. In names and notes the source's numbering stands. Where no end group is shown, it is not given here. [ ]: non-standard residue; d: D form. pT = C[C@@H](OP(=O)(O)O)[C@H](N)C(=O)O

B1: T1010A: NCAPG2 mutant which substituted threonine with alanine at the residue number 1010 of SEQ ID NO: 7 (protein, listed as Homo sapiens)
chain: MEKRETFVQAVSKELVGEFLQFVQLDKEASDPFSLNELLDELSRKQKEELWQRLKNLLTDVLLESPVDGWQVVEAQGEDNMETEHGSKMRKSIEIIYAITSVILASVSVINESENYEALLECVIILNGILYALPESERKLQSSIQDLCVTWWEKGLPAKEDTGKTAFVMLLRRSLETKTGADVCRLWRIHQALYCFDYDLEESGEIKDMLLECFININYIKKEEGRRFLSCLFNWNINFIKMIHGTIKNQLQGLQKSLMVYIAEIYFRAWKKASGKILEAIENDCIQDFMFHGIHLPRRSPVHSKVREVLSYFHHQKKVRQGVEEMLYRLYKPILWRGLKARNSEVRSNAALLFVEAFPIRDPNLHAIEMDSEIQKQFEELYSLLEDPYPMVRSTGILGVCKITSKYWEMMPPTILIDLLKKVTGELAFDTSSADVRCSVFKCLPMILDNKLSHPLLEQLLPALRYSLHDNSEKVRVAFVDMLLKIKAVRAAKFWKICPMEHILVRLETDSRPVSRRLVSLIFNSFLPVNQPEEVWCERCVTLVQMNHAAARRFYQYAHEHTACTNIAKLIHVIRHCLNACIQRAVREPPEDEEEEDGREKENVTVLDKTLSVNDVACMAGLLEIIVILWKSIDRSMENNKEAKLYTINKFASVLPEYLKVFKDDRCKIPLFMLMSFMPASAVPPFSCGVISTLRSREEGAVDKSYCTLLDCLCSWGQVGHILELVDNWLPTEHAQAKSNTASKGRVQIHDTRPVKPELALVYIEYLLTHPKNRECLLSAPRKKLNHLLKALETSKADLESLLQTPGGKPRGFSEAAAPRAFGLHCRLSIHLQHKFCSEGKVYLSMLEDTGFWLESKILSFIQDQEEDYLKLHRVIYQQIIQTYLTVCKDVVMVGLGDHQFQMQLLQRSLGIMQTVKGFFYVSLLLDILKEITGSSLIQKTDSDEEVAMLLDTVQKVFQKMLECIARSFRKQPEEGLRLLYSVQRPLHEFITAVQSRHTDTPVHRGVLSALIAGPVVEISHQLRKVSDVEELTPPEHLSDLPPFSRCLIGIIIKSSNVVRSFLDELKACVASNDIEGIVCLTAAVHIILVINAGKHKSSKVREVAATVHRKLKTFMEITLEEDSIERFLYESSSRTLGELLNS
B2: T805A: NCAPG2 mutant which substituted threonine with alanine at the residue number 805 of SEQ ID NO: 7 (protein, listed as Homo sapiens)
chain: B1 chain with T805A, A1010T

Assays:
[1] = test system: HuR-7 human hepatoma cell; assay: Cell survival and nucleus morphology of hepatoma cells treated with FITC-tagged NCAPG2 peptides (Opera Phenix); assay type: cell-based; settings: HuR-7, FITC-tagged peptide
Excerpt: FIG. 12 illustrates NCAPG2 p The1010 (VLSpTL) and NCAPG2 The1010 (VLSTL) peptide decreased cell survival and induced mitotic defect in HuR-7 human hepatoma cell. Cell survival and nucleus morphology were detected from Opera Phenix system (PerkinElmer).

[2] = biological target: T1, human PLK1-PBD (371-594) (Homo sapiens, UniProt P53350); assay: Fluorescence polarisation binding assay for the PBD of PLK1; settings: FITC-labelled peptide 10 nM, protein 0 to 4 μM
T1 construct: The human PLK1-PBD (371-594) was amplified by PCR; GST (N, cleaved yes); made in house; host or cells: E. coli Rosetta2(DE3)pLysS
T1 sequence (P53350 371-594): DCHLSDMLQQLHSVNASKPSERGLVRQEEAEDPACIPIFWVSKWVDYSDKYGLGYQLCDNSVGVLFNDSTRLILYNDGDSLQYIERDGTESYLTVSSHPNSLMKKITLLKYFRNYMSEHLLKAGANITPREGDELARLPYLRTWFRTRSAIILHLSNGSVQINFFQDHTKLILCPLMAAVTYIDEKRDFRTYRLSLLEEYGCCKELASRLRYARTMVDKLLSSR
Procedure: The human PLK1-PBD (371-594) was amplified by PCR and cloned into the pGEX6p-1 vector using the EcoRI and XhoI restriction enzyme sites. The protein was overexpressed in E. coli Rosetta2(DE3)pLysS cells (Novagen). The cells were grown at 37° C. in 3 L of Terrific Broth medium to an OD600 of 0.6, and recombinant protein expression was induced with 0.1 mM isopropyl β-D-thiogalactopyranoside (IPTG) at 20° C. The cells were further grown at 20° C. for 20 hr after IPTG induction. The purification methods were similar to methods that have been previously reported (Cheng, K. Y., et al. The crystal structure of the human polo-like kinase-1 polo box domain and its phospho-peptide complex. EMBO J 22, 5757-68 (2003)). Briefly, the cell pellet was resuspended in ice-cold HBS buffer (10 mM HEPES pH 7.5, 200 mM NaCl, 3.4 mM EDTA, 0.01% (v/v) 1-thioglycerol) and homogenized by sonication. After sonication, the cell debris was centrifuged and supernatant was applied to GST Sepharose resin (GE Healthcare). After extensive washing with HBS buffer, protein was eluted with HBS buffer supplemented with 20 mM reduced glutathione. PreScission protease (GE Healthcare) was added to eluted protein in order to remove the fused GST and the cleavage product was diluted and re-passed through GST Sepharose column. The flow through was collected and applied to Superdex 75 prep grade column (GE Healthcare) equilibrated with HBS buffer. The purified protein was concentrated to 6 mg/ml and used for fluorescence polarization binding assay or crystal screening.
For the fluorescence polarisation binding assay, FITC-labelled 1010pT (GVLSpTLI) or 1010T (GVLSTLI) (SEQ ID NO: 8) peptide was mixed with purified PBD and incubated in a buffer containing 10 mM HEPES (pH7.5), 50 mM NaCl, 1 mM EDTA, 1 mM DTT, and 0.0025% (v/v) Tween 20. The final protein concentrations ranged from 0 to 4 μM, and the final peptide concentration was 10 nM. Fluorescence polarisation was analysed 30 min after mixing the peptide and proteins in a 96-well plate using a VERSAmax microplate reader (Molecular Devices). Binding curves were fitted using GraphPad Prism software (GraphPad Software).
The human PLK1-PBD (371-594), PLK2-PBD (451-685) and PLK3-PBD (412-646) genes were cloned into pGEX6p-1 vector using EcoRI/XhoI restriction sites. […] The purified PLK-PBD proteins were concentrated and used for the fluorescence polarization binding assay.
For the fluorescence polarization binding assay, each fluorescein isothiocyanate (FITC)-labeled 1010pT (GVLSpTLI), 1010T (GVLSTLI), 1010E (GVLSELI), or 1010D (GVLSDLI) peptide was mixed with purified PLK1, PLK2 or PLK3 and incubated in a buffer containing 10 mM HEPES (pH 7.5), 50 mM NaCl, 1 mM EDTA, 1 mM DTT and 0.0025% (v/v) Tween 20. […]

[3] = biological target: T2, PLK1 (Homo sapiens, UniProt P53350); assay: Pull down assay / immunoprecipitation of Flag-tagged NCAPG2 mutants with GST-tagged PLK1; assay type: binding
T2 construct: expressed in transfected cells
T2 sequence (P53350 whole entry): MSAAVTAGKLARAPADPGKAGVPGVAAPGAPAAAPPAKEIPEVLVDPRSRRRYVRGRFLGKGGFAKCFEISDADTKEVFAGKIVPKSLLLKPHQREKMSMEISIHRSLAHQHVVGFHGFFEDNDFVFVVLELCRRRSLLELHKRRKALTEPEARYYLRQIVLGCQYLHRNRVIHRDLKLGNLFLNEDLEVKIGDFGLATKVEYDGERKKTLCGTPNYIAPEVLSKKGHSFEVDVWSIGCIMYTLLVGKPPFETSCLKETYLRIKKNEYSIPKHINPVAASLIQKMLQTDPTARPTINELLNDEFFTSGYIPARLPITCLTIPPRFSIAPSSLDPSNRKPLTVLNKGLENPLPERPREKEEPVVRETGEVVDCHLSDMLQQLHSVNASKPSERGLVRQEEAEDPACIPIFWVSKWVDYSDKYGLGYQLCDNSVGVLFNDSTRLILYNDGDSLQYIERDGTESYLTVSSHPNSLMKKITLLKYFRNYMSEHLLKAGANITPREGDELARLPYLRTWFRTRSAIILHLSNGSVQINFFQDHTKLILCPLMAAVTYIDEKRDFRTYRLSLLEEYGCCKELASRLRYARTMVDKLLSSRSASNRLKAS
Excerpt: The NCAPG2 expression vectors were constructed using pcDNA3.1, pCMV-3FLAG-1, and pLL3.7 vectors with KpnI/XhoI, EcoRV/XhoI, and SmaI/XhoI restriction enzyme sites, respectively. To produce siRNA-resistant NCAPG2 mutants (Lenti-NCAPG2^R), the mutants (forward primer: 5′ GAAGACTACCTGAAGCTTCACAGA GTGATT TATCAGCAAATTATCCAGACCTACCTG-3′ (SEQ ID NO: 3), reverse primer: 5′-CAGGTAGGTCTGGATAATTTGCTGATAAATCACTCTGTGAAGCTTCAGGTAGTCTTCTTC-3′ (SEQ ID NO: 4)) were generated using a QuikChange Site-Directed Mutagenesis Kit (Stratagene). […]
For the detection of proteins using the immunoblottings, subjects were protein complexes from immunoprecipitation or whole cell lysates harvested from indicated conditions. […] Protein concentration was determined using BCA™ protein assay kit (Pierce, Rockford, USA). […] Protein expressions detected chemiluminescent signals activated by SuperSignal West Pico Chemiluminescent Substrate (Pierce Rockford, Ill., USA) reacted with horse radish peroxidase tagged secondary antibodies (Jackson ImmunoResearch Laboratories, Inc., West Grove, USA).

Row | Molecule | effect on mitosis [1] | survival rate of human liver cancer cell [1] | binding to PLK1-PBD (in words) [2] | binding of NCAPG2 mutant to PLK1 [3]
1 | VLSpTL (VLS[pT]L; listed as Homo sapiens) [NG2 p The1010, phosphorylated 5-mer NCAPG2 peptide comprising residue 1010] | induced abnormal mitosis | lowered survival rate | – | –
2 | VLSTL (listed as Homo sapiens) [NG2 The1010] | induced abnormal mitosis | lowered survival rate | – | –
3 | GVLSELI [1010E, 7-mer peptide with glutamate as phosphor-Thr mimetic] | – | – | did not bind | –
4 | GVLSDLI [1010D, 7-mer peptide with aspartate as phosphor-Thr mimetic] | – | – | did not bind | –
5 | B1 | – | – | – | inhibited
6 | B2 | – | – | – | inhibited
